Paper PMC9007350, “Aurintricarboxylic acid is a canonical disruptor of the TAZ-TEAD transcriptional complex” (PLoS ONE, 2022)

How the values were obtained:
[1] = test system: HEK293 cells; assay: LDH cytotoxicity assay, HEK293; type: cell-based; settings: HEK293, concentrations used
Protocol: Soft agar colony growth assay was performed as previously described. The colonies were counted using Image-Pro Plus 7.0 software (Media Cybernetics). ATA cytotoxicity was assessed using the CyQUANT LDH Cytotoxicity Assay Kit (ThermoFisher) and was performed as per the manufacturer’s protocol.
NIH3T3 and HEK293 cells were treated with the indicated concentrations of ATA and the cytotoxicity was evaluated by calculating the amount of intracellular LDH released into the media. LDH absorbance after complete cell lysis is considered as 100% cytotoxicity and the absorbance after ATA treatment was normalized accordingly. (TIF) Click here for additional data file.

[2] = test system: CYR61, CTGF, AMOTL2 and ANKRD1 transcripts in TC-expressing NIH3T3 cells; assay: qPCR of canonical TAZ target genes; type: cell-based, murine; settings: ATA 10 μM, 48 h
Protocol: NIH3T3 and HEK293 cells were obtained from the American Type Tissue Collection (ATCC, Manassas, VA) and cultured in DMEM containing 10% fetal bovine serum and penicillin/streptomycin. A TEAD dual luciferase reporter assay was performed as previously described. Cells were treated with vehicle control or ATA (10 μM) for 48 h before measuring the luciferase activity or processing the samples for RNA extraction. Each experiment was repeated at least 2-3 times. NIH3T3 cells were used. The extracted RNA (RNeasy Mini, Qiagen) from treated cells was either used for qPCR measurements or sent for bulk RNA-Seq. Sequencing runs were performed on an Illumina HiSeq 4000 sequencer (Genewiz). […] Paired end reads were aligned to the murine genome ([…]2 [27]. Raw count files were generated with featureCounts using a corresponding GTF reference. Differential gene expression analysis was performed with DESeq2 [29]. Transcripts were considered to be differentially expressed if the false discovery rate < 0.05 and Log2FC > 2. When performing differential gene expression for GSEA analysis, the Limma package was used (<5 CPM filtering) with t-scores used for rank statistics. GSEA plots and statistics were generated with FGSEA with custom gene sets. Raw sequencing reads and processed files have been deposited in the GEO repository (data will be uploaded upon manuscript acceptance). […]

[3] = test system: TC/TEAD transcriptional profile in TC-expressing NIH3T3 cells; assay: Bulk RNA-Seq, differential gene expression and GSEA (TC ATA v. TC DMSO); type: cell-based, murine
Protocol: NIH3T3 and HEK293 cells were obtained from the American Type Tissue Collection (ATCC, Manassas, VA) and cultured in DMEM containing 10% fetal bovine serum and penicillin/streptomycin. A TEAD dual luciferase reporter assay was performed as previously described. Cells were treated with vehicle control or ATA (10 μM) for 48 h before measuring the luciferase activity or processing the samples for RNA extraction. Each experiment was repeated at least 2-3 times. NIH3T3 cells were used. The extracted RNA (RNeasy Mini, Qiagen) from treated cells was either used for qPCR measurements or sent for bulk RNA-Seq. Sequencing runs were performed on an Illumina HiSeq 4000 sequencer (Genewiz). Subsequent bioinformatics analysis was performed in the Galaxy Project platform. Paired end reads were aligned to the murine genome ([…]2 [27]. Raw count files were generated with featureCounts using a corresponding GTF reference. Differential gene expression analysis was performed with DESeq2 [29]. Transcripts were considered to be differentially expressed if the false discovery rate < 0.05 and Log2FC > 2. When performing differential gene expression for GSEA analysis, the Limma package was used (<5 CPM filtering) with t-scores used for rank statistics. GSEA plots and statistics were generated with FGSEA with custom gene sets. Raw sequencing reads and processed files have been deposited in the GEO repository (data will be uploaded upon manuscript acceptance). The Universal Probe Library probes (Roche) and the associated primer sequences for the qPCR targets are listed below: […]

## O=C(O)C1=CC(=C(c2ccc(O)c(C(=O)O)c2)c2ccc(O)c(C(=O)O)c2)C=CC1=O [ATA, aurintricarboxylic acid]
[1]
  cytotoxicity, LDH release: did not show cytotoxicity
[2]
  transcripts of canonical TAZ target genes (CYR61, CTGF, AMOTL2, ANKRD1) by qPCR: suppression of these transcripts
[3]
  Log2 Fold Change, Pkig (ENSMUSG00000035268): 0.2955
[3]; ATA-treated vs vehicle, TC-expressing NIH3T3, 10 μM, 48 h, P = 0.0036
  GSEA normalized enrichment score (NES) for the 248 TC-upregulated genes: -2.027
[3]; TC ATA v. TC DMSO, RNA-Seq differential gene expression, gene Cep83os
  Log2 Fold Change, Cep83os (ENSMUSG00000097164): 0.5451
[3]; TC ATA v. TC DMSO, RNA-Seq differential gene expression, gene P3h1
  Log2 Fold Change, P3h1 (ENSMUSG00000028641): 0.1936
[3]; TC ATA v. TC DMSO, RNA-Seq differential gene expression, gene Per1
  Log2 Fold Change, Per1 (ENSMUSG00000020893): 0.3113
[3]; TC ATA v. TC DMSO, RNA-Seq differential gene expression, gene Spn
  Log2 Fold Change, Spn (ENSMUSG00000051457): 0.7001
[3]; TC ATA v. TC DMSO, RNA-Seq differential gene expression, gene Wnt9a
  Log2 Fold Change, Wnt9a (ENSMUSG00000000126): -0.2847
[3]; gene AW551984, TC ATA v. TC DMSO
  Log2 Fold Change: 0.7046
[3]; gene Abcd2, TC ATA v. TC DMSO
  Log2 Fold Change: 0.775
[3]; gene Adgra2, TC ATA v. TC DMSO
  Log2 Fold Change: -0.4459
[3]; gene Adgrl2, TC ATA v. TC DMSO
  Log2 Fold Change: 0.4171
[3]; gene Angpt2, TC ATA v. TC DMSO
  Log2 Fold Change: 1.066
[3]; gene Angptl2, TC ATA v. TC DMSO
  Log2 Fold Change: -0.3301
[3]; gene Asb4, TC ATA v. TC DMSO
  Log2 Fold Change: 0.7498
[3]; gene Asic1, TC ATA v. TC DMSO
  Log2 Fold Change: 0.4827
[3]; gene Atg9b, TC ATA v. TC DMSO
  Log2 Fold Change: -1.183
[3]; gene Atp1a2, TC ATA v. TC DMSO
  Log2 Fold Change: 0.776
[3]; gene Atp1b1, TC ATA v. TC DMSO
  Log2 Fold Change: 0.4541
[3]; gene Cacng7, TC ATA v. TC DMSO
  Log2 Fold Change: 0.4229
[3]; gene Cbr2, TC ATA v. TC DMSO
  Log2 Fold Change: 1.297
[3]; gene Ccdc80, TC ATA v. TC DMSO
  Log2 Fold Change: 0.4999
[3]; gene Cd24a, TC ATA v. TC DMSO
  Log2 Fold Change: 0.8435
[3]; gene Cd81, TC ATA v. TC DMSO
  Log2 Fold Change: 0.3883
[3]; gene Chrnb1, TC ATA v. TC DMSO
  Log2 Fold Change: -0.628
[3]; gene Ckmt2, TC ATA v. TC DMSO
  Log2 Fold Change: 0.9415
[3]; gene Clu, TC ATA v. TC DMSO
  Log2 Fold Change: 0.6162
[3]; gene Col4a6, TC ATA v. TC DMSO
  Log2 Fold Change: 0.4089
[3]; gene Coq8a, TC ATA v. TC DMSO
  Log2 Fold Change: 0.862
[3]; gene Creg1, TC ATA v. TC DMSO
  Log2 Fold Change: 0.425
[3]; gene Csrp2, TC ATA v. TC DMSO
  Log2 Fold Change: -0.43
[3]; gene Cth, TC ATA v. TC DMSO
  Log2 Fold Change: -0.3812
[3]; gene Dhrs3, TC ATA v. TC DMSO
  Log2 Fold Change: 0.4703
[3]; gene Dlk1, TC ATA v. TC DMSO
  Log2 Fold Change: 0.4509
[3]; gene Dmpk, TC ATA v. TC DMSO
  Log2 Fold Change: 0.6567
[3]; gene Dpep1, TC ATA v. TC DMSO
  Log2 Fold Change: 0.7304
[3]; gene Epha4, TC ATA v. TC DMSO
  Log2 Fold Change: 0.8248
[3]; gene Ercc1, TC ATA v. TC DMSO
  Log2 Fold Change: -0.7217
[3]; gene Errfi1, TC ATA v. TC DMSO
  Log2 Fold Change: -0.4719
[3]; gene Fabp3, TC ATA v. TC DMSO
  Log2 Fold Change: 1.14
[3]; gene Fam13c, TC ATA v. TC DMSO
  Log2 Fold Change: 0.6886
[3]; gene Fam110c, TC ATA v. TC DMSO
  Log2 Fold Change: -0.7995
[3]; gene Fam114a1, TC ATA v. TC DMSO
  Log2 Fold Change: 0.3512
[3]; gene Fgf7, TC ATA v. TC DMSO
  Log2 Fold Change: 0.4417
[3]; gene Fn1, TC ATA v. TC DMSO
  Log2 Fold Change: 0.5505
[3]; gene Galnt15, TC ATA v. TC DMSO
  Log2 Fold Change: 1.35
[3]; gene Gas1, TC ATA v. TC DMSO
  Log2 Fold Change: 0.4145
[3]; gene Ggct, TC ATA v. TC DMSO
  Log2 Fold Change: -0.7955
[3]; gene Gm49774, TC ATA v. TC DMSO
  Log2 Fold Change: -0.6084
[3]; gene Gse1, TC ATA v. TC DMSO
  Log2 Fold Change: 0.7002
[3]; gene Gsta3, TC ATA v. TC DMSO
  Log2 Fold Change: 0.7075
[3]; gene Gstm1, TC ATA v. TC DMSO
  Log2 Fold Change: 0.6142
[3]; gene Hivep3, TC ATA v. TC DMSO
  Log2 Fold Change: 0.5196
